Measured values as given in patent US7935377B2, “Crystals of free (2R, 4R)-monatin and use thereof” (Ajinomoto Co., Inc., priority 2004, dated 2011).
Read-outs that look alike come from different tables or passages of the source.

Legend:
[1] = Sweetness intensity of crystals of free (2R,4R)-monatin compared with an aqueous solution of 5% sucrose
Procedure: It was identified that the sweetness intensity (degree of sweetness) of the present crystals of free (2R,4R)-monatin is about 2500 times that of an aqueous solution of 5% sucrose. This sweetness intensity is nearly equivalent to the sweetness intensity (about 2700 times) of the crystals of the sodium salt of (2R,4R)-monatin evaluated by the inventors in Amino, Y. et al., WO 2003045914 A1.
1.05 mg of crystals of free (2R,4R)-monatin described in the above Comparative Example 1 were dissolved in 20 ml of ion-exchanged water. A solution was prepared by diluting this solution 2.5 times. The sweetness of this aqueous solution of the free compound of (2R,4R)-monatin was compared with that of an aqueous solution of 5% sucrose separately prepared.

[2] = Hygroscopic property test (25° C., humidity 95%); format: physicochemical; settings: for water absorption: high humidity condition; for Increase percentage (absorbed water amount) / Weight: 25° C., humidity 95%; for absorbed water: after 24 hours, 95% high humidity condition
Procedure: The crystals of free (2R,4R)-monatin (sample 1) prepared in Comparative Example 1, crystal of the potassium salt of (2R,4R)-monatin monohydrate (sample 2), and an amorphous solid of the potassium salt of (2R,4R)-monatin (sample 3) separately prepared were weighed out in an amount of 0.5 g, respectively, each was placed in a petri dish, and stored (retained) under a high humidity condition of 95% and a temperature of 25° C. After retention times of 1, 3, 6 and 24 hours, the weight of each sample was measured. The measuring conditions were as follows.
Apparatus name: HIFLEX TH401 supplied from ETAC.
Storing condition: 25° C., humidity of 95%.
Sample container: diameter of 25 cm, glass petri dish.

[3] = sodium salt of stereoisomer, 5% sucrose solution as control, optical purity 99% or more, cited from earlier work
[4] = cited from earlier work; for intensity of sweet taste: Nakamura et al., hydrochloride salts

Row | Increase percentage (absorbed water amount) ([2]; retention time 0 hrs) [%] | Weight ([2]; retention time 0 hrs) [g] | Increase percentage (absorbed water amount) ([2]; retention time 1 hr) [%] | Weight ([2]; retention time 1 hr) [g] | Increase percentage (absorbed water amount) ([2]; retention time 3 hrs) [%] | Weight ([2]; retention time 3 hrs) [g] | Increase percentage (absorbed water amount) ([2]; retention time 6 hrs) [%] | Weight ([2]; retention time 6 hrs) [g] | Increase percentage (absorbed water amount) ([2]; retention time 24 hrs) [%] | Weight ([2]; retention time 24 hrs) [g] | Molecule | degree of sweetness [3] [times] | other results
1 | 0.00 | 0.5000 | 0.00 | 0.5000 | 0.00 | 0.4996 | 0.00 | 0.5001 | 0.00 | 0.4997 | N[C@H](CC(O)(Cc1c[nH]c2ccccc12)C(=O)O)C(=O)O (stereo partly drawn) [Sample 1, (2R,4R)-monatin] |  | sweetness compared with aqueous solution of 5% sucrose ([1]; 1.05 mg in 20 ml ion-exchanged water, diluted 2.5 times): nearly equivalent sweetness intensity; sweetness intensity (degree of sweetness) ([1]; relative to an aqueous solution of 5% sucrose): about 2500 times; water absorption ([2]; listed as crystal of free (2R,4R)-monatin): scarcely absorbs water; water absorption ([2]; listed as crystals of free (2R,4R)-monatin): no water absorption
2 | 0.00 | 0.5014 | 8.82 | 0.5456 | 8.58 | 0.5444 | 7.30 | 0.5383 | 7.30 | 0.5380 | potassium salt of (2R,4R)-monatin [Sample 3] |  | absorbed water [2]: 7.3 wt. %
3 |  |  |  |  |  |  |  |  |  |  | NC(CC(O)(Cc1c[nH]c2ccccc12)C(=O)O)C(=O)O [(2S,4S)-monatin substance, (2S,4S)-monatin] | 50 | 
4 |  |  |  |  |  |  |  |  |  |  | N[C@@H](C[C@@](O)(Cc1c[nH]c2ccccc12)C(=O)O)C(=O)O [(2S,4S)-monatin, (2S,4S)-2-amino-4-carboxy-4-hydroxy-5-(3-indolyl)-pentanoic acid] |  | sweetness intensity ([4]; times that of sucrose, Vleggaar et al.): 800 to 1400 times
5 |  |  |  |  |  |  |  |  |  |  | NC(CC(O)(Cc1c[nH]c2ccccc12)C(=O)O)C(=O)O [synthetic (2S,4S)-monatin, (2S,4S)-monatin] |  | intensity of sweet taste [4]: equivalent to that of the natural specimen of monatin
6 | 0.00 | 0.5007 | 1.08 | 0.5061 | 3.71 | 0.5193 | 4.89 | 0.5252 | 5.39 | 0.5277 | potassium salt of (2R,4R)-monatin monohydrate [Sample 2] |  | absorbed water [2]: 5.4 wt. %
7 |  |  |  |  |  |  |  |  |  |  | N[C@H](C[C@](O)(Cc1c[nH]c2ccccc12)C(=O)O)C(=O)O [(2R,4R)-monatin substance, (2R,4R)-monatin] | 2700 | degree of sweetness ([3]; listed as (2R,4R)): 2700 times; degree of sweetness ([3]; listed as crystals of the sodium salt of (2R,4R)-monatin): about 2700 times
8 |  |  |  |  |  |  |  |  |  |  | N[C@H](C[C@@](O)(Cc1c[nH]c2ccccc12)C(=O)O)C(=O)O [(2R,4S)-monatin substance, (2R,4S)-monatin] | 1300 | 
9 |  |  |  |  |  |  |  |  |  |  | N[C@@H](C[C@](O)(Cc1c[nH]c2ccccc12)C(=O)O)C(=O)O [synthetic (2S,4R)-monatin, (2S,4R)-monatin] |  | intensity of sweet taste [4]: slightly sweet taste; intensity of sweet taste ([4]; listed as hydrochloride salt of (2S,4R)-monatin): almost no sweetness
10 |  |  |  |  |  |  |  |  |  |  | N[C@@H](C[C@](O)(Cc1c[nH]c2ccccc12)C(=O)O)C(=O)O [(2S,4R)-monatin substance, (2S,4R)-monatin] | 300 | 
